Test results from patent US20230118497A1, “PYRAZOLE-CONTAINING POLYCYCLIC DERIVATIVE INHIBITOR, PREPARATION METHOD THEREFOR AND APPLICATION THEREOF” (Shanghai Hansoh Biomedical Co., Ltd., priority 2019, published 2023).

Columns and labels:
Type in all cases: cell-based
[1] = target: T1, 1321N1-hP2X3 receptor (Homo sapiens, UniProt P56373); experiment: Calcium ion mobility (FLIPR) in cells stably expressing 1321N1-hP2X3 receptors; settings: calcium signal, agonist at EC80
T1 construct: host or cells: 1321N1
T1 sequence (P56373 1-397): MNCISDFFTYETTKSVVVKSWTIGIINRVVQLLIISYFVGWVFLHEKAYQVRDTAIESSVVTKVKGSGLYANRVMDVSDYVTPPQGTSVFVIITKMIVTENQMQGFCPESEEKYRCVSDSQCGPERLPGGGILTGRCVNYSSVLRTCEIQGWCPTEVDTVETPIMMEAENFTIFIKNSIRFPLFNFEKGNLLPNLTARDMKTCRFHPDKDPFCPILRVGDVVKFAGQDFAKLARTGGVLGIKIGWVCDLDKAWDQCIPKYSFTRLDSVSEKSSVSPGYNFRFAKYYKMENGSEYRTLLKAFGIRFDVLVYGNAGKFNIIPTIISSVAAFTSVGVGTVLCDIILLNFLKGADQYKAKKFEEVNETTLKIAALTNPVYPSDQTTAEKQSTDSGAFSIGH
Procedure: Test Example 1. Determination of the Effect of the Compounds of the Present Invention on Calcium Ion Mobility in Cells Stably Expressing 1321N1-hP2X3 Receptors
To determine the inhibitory activity of the compounds on 1321N1-hP2X3 receptor.
Stably transfected cell line: 1321N1-hP2X3 (supplied by Shanghai ChemPartner Chemical Research Co., Ltd.).
(§1) Assay buffer: 1*HBSS+20 mM HEPES;
Cell culture medium: DMEM+10% FBS+75 µg/mL Hygromycin B+300 µg/mL G418;
(§2) Plating medium: DMEM+10% DPBS;
(§3) 0.5*Dye: 10*Dye stock+1.25 Probenecid+1*assay buffer+0.5 U/mL ATP hydrolytic enzyme;
(§4) 2. The cells were cultured to 70%-90% confluency in the cell culture medium at 37° C., 5% CO2. The medium was discarded, and the cells were added with 2 mL of Versene, and the cells were placed in an incubator at 37° C. for 2 to 5 min. The cells were collected by addition of 10 mL of plating medium and counted. The cells were seeded to the 384-well assay plate by addition of 50 μL solution (a density of 1×10^4 cells/well) to each well, and incubated for 16 to 24 hours (at least overnight).
(§5) 3. The medium was discarded, and 30 μL of 1× dye was added. The cells were incubated at 37° C. in the dark for 60 min.
(§6) 4. The compound powder was dissolved in DMSO to obtain a 20 mM stock solution. 180× compound with required concentration was formulated, and diluted in gradient for concentration points.
(§7) 5. Preparation of compound plate: 500 nL of 180× compound was transferred to the compound plate (source plate for FLIPR) using ECHO. 30 μL of assay buffer was added to each well, and the plate was shaken gently for 20 to 40 minutes.
(§8) 6. Determination: 15 μL of 3× compound was taken from each well and added to the cell plate. The samples were added by FLIPR instrument, and the calcium signals were detected. After 15 minutes, 22.5 μL of 3× agonist (EC80 concentration) was added to each well and the calcium signals were detected.
(§9) The calcium signal values were determined by FLIPR. The ratio of the 340/510 nm wavelength signals to 380/510 nm wavelength signals was used as the calculated results for each sampling time point in the experiment. The calculation of maximum minus minimum was derived from the ratio signal curve.
(§10) The percent inhibition rate and ten-point concentration data were fitted to the parametric nonlinear logistic equation by using GraphPad prism to calculate the IC50 values of the compounds.

[2] = target: T2, 1321N1-hP2X2/3 receptor (Homo sapiens, UniProt P56373+Q9UBL9); experiment: Calcium ion mobility (FLIPR) in cells stably expressing 1321N1-hP2X2/3 receptors; settings: calcium signal, agonist at EC80
T2 construct: host or cells: 1321N1
T2 sequence (P56373 1-397): T1 sequence (P56373 1-397)
T2 sequence (Q9UBL9 1-471): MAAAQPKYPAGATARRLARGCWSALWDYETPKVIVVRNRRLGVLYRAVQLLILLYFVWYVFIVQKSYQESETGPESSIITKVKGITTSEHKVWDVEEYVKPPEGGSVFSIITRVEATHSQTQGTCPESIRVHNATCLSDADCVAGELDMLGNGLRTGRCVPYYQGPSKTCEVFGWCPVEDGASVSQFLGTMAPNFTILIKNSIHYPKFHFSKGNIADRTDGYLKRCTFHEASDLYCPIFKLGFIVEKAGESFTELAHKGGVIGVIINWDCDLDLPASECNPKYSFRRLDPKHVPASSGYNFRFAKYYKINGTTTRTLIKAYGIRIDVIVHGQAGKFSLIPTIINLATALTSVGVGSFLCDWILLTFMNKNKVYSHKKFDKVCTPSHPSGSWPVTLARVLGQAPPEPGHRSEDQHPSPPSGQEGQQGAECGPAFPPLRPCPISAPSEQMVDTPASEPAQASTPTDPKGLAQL
Procedure: Test Example 2. Determination of the Effect of the Compounds of the Present Invention on Calcium Ion Mobility in Cells Stably Expressing 1321N1-hP2X2/3 Receptors
To determine the inhibitory activity of the compounds on 1321N1-hP2X2/3 receptor.
Stably transfected cell line: 1321N1-hP2X2/3 (supplied by Shanghai ChemPartner Chemical Research Co., Ltd.).
as §1
Cell culture medium: DMEM+10% FBS+75 μg/mL Hygromycin B+150 μg/mL G418;
as §2, §3, §4, §5, §6, §7, §8, §9, §10

[3] = target: T3, hERG potassium channel (Homo sapiens, UniProt Q12809); experiment: hERG potassium channel inhibition activity assay (Qpatch, CHO-hERG cells); settings: Qpatch whole-cell, highest test concentration 40 μM
T3 construct: expressed in transfected cells; host or cells: CHO
Procedure: Test Example 8. hERG Potassium Channel Inhibition Activity Assay
7.1.1 CHO-hERG cells were cultured in a 175 cm^2 culture flask. After the cell density reached 60-80%, the culture solution was removed. The cells were washed with 7 mL of PBS once, and dissociated with 3 mL of Detachin.
7.1.2 After completion of dissociation, the cells were neutralized with 7 mL of culture solution. The solution was centrifuged, and the supernate was removed. The cells were resuspended in 5 mL of culture solution. The cell indensity is ensured as 2˜5×10^6/mL.
Single cell sealing impedance and formation of whole-cell mode were automatically performed by Qpatch instrument. After obtaining the whole-cell recording mode, the cell was clamped at −80 mV. The cell first underwent pre-voltage of −50 mV for 50 msec, then underwent depolarization stimulation at +40 mV for 5 sec, and then underwent repolarization at −50 mV for 5 sec, and then the voltage returned to −80 mV The cell underwent the stimulation at the voltage every 15 sec. The data were recorded for 2 min, then extracellular fluid was administrated, and then the data were recorded for 5 min. Then, the administration process begun. The concentration of the test compound started from the lowest concentration, and each test concentration was administrated for 2.5 min. At least three cells (n≥3) were tested for each concentration.
4.1 20 mM mother liquor of the compound was diluted with extracellular fluid. […] of extracellular fluid was added to 5 μL of 20 mM mother liquor of the compound to obtain a concentration of 40 μM (500-fold dilution). The solution was subjected to a 3-fold serial dilution with extracellular fluid containing 0.2% DMSO to obtain a required final concentration.
This concentration of DMSO had no effect on hERG potassium channel.
The experimental data was analyzed by XLFit software.

T3 sequence (Q12809 whole entry): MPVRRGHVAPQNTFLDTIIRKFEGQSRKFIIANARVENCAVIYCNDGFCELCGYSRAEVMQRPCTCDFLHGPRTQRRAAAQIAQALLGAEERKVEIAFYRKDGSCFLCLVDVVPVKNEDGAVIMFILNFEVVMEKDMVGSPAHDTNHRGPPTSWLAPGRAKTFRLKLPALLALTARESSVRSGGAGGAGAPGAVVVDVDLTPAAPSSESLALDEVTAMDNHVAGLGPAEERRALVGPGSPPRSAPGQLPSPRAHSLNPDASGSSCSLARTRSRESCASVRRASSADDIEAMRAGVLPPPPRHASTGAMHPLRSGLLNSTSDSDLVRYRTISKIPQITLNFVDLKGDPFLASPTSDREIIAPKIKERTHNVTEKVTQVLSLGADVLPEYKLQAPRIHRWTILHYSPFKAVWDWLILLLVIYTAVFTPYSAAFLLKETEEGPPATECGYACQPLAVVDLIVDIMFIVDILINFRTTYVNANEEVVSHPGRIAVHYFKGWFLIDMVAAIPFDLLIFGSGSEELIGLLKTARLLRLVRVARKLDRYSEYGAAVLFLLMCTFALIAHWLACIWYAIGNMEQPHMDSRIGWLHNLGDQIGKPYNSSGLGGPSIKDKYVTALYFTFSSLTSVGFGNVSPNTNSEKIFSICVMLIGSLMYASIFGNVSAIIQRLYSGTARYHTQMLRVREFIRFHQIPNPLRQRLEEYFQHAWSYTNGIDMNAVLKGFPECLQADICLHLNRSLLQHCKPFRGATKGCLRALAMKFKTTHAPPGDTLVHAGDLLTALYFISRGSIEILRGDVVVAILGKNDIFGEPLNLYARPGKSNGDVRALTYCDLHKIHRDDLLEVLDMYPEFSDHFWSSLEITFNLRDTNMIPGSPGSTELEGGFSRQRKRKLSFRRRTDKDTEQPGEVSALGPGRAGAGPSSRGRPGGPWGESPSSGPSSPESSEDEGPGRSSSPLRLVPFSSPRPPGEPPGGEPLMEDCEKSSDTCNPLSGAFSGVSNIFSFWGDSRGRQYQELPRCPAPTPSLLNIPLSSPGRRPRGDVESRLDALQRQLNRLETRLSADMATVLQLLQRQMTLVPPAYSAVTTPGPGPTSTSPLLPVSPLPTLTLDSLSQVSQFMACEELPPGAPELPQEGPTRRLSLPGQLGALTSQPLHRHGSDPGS

`CCc1cc2n(CC(=O)Nc3ccc(F)cn3)c(=O)c3ccc(C(F)(F)F)nc3n2n1` [Example 34, 2-(2-Ethyl-5-oxo-8-(trifluoromethyl)pyrazolo[1,5-a]pyrido[3,2-e]pyrimidin-4(5H)-yl)-N-(5-fluoropyridin-2-yl)acetamide] was tested, and the IC50 [1] was 63.4 nM and the IC50 [2] was 25.2 µM.
`O=C(Cn1c(=O)c2ccc(C(F)(F)F)nc2n2nc(Br)cc12)Nc1ccc(F)cn1` [Example 61-A, 2-(2-bromo-5-oxo-8-(trifluoromethyl)pyrazolo[1,5-a]pyrido[3,2-e]pyrimidin-4(5H)-yl)-N-(5-fluoropyridin-2-yl)acetamide] showed an IC50 [1] of 76.4 nM, an IC50 [2] of 6.36 µM and an IC50 [3] of over 10 µM.
Molecule `N#Cc1cc2n(CC(=O)Nc3ccc(F)cn3)c(=O)c3ccc(C(F)(F)F)nc3n2n1` [Example 68, 2-(2-Cyano-5-oxo-8-(trifluoromethyl)pyrazolo[1,5-a]pyrido[3,2-e]pyrimidin-4(5H)-yl)-N-(5-fluoropyridin-2-yl)acetamide] has an IC50 [1] of 32.5 nM, an IC50 [2] of 5.63 µM and an IC50 [3] of 18.4 µM.
For `O=C(Cn1c(=O)c2ccc(C(F)(F)F)nc2n2nccc12)Nc1ccc(F)cn1` [Example 78, N-(5-Fluoropyridin-2-yl)-2-(5-oxo-8-(trifluoromethyl)pyrazolo[1,5-a]pyrido[3,2-e]pyrimidin-4(5H)-yl)acetamide], the IC50 [1] was 49 nM, the IC50 [2] was 4.52 µM and the IC50 [3] was over 10 µM.
Work on `N#Cc1cnn2c3nc(C(F)(F)F)ccc3c(=O)n(CC(=O)Nc3ccc(F)cn3)c12` [Example 80, 2-(3-Cyano-5-oxo-8-(trifluoromethyl)pyrazolo[1,5-a]pyrido[3,2-e]pyrimidin-4(5H)-yl)-N-(5-fluoropyridin-2-yl)acetamide] yielded an IC50 [1] of 64.3 nM, an IC50 [2] of 3.04 µM and an IC50 [3] of over 20 µM.
